Entries after “also recorded” stand apart in the source; their conditions may differ.

Data on 6 molecules can be found in patent US9951104B2, “Peptides and methods of using same” (Serpin Pharma, LLC, priority 2012, dated 2018).

One series deals with 111 human receptors. Kind of series: GenSEP Explorer panel, human receptor panning. To be noted: whole GenSEP Explorer panel. The source says: In addition, we also performed a profile using human receptor panning. The GenSEP Explorer panel contains 111 in vitro assay targets carefully selected to assess drug/chemical biological activities. Assay categories include GPCRs, Voltage-Gated Ion Channels, Ligand-Gated Ion Channels, Neurotransmitter transporters, Nuclear Receptors and Steroids as well as a diverse set of biochemical targets including Phosphodiesterases, Kinases and other relevant enzymes.

Another series has as its target T1, hERG (Homo sapiens, UniProt Q12809).
T1 construct: Apredica (contract study)
Kind of series: hERG FastPatch assay. It is filed as cell-based. To be noted: test conc 0.008-25 μM. For orientation: hERG is a cardiac potassium channel; its block is linked to QT prolongation.

Series [1] in a line: SP16 pharmacokinetic profile, plasma concentration by LC/MS/MS. It is filed as in vivo, rat. To be noted: SP16, IV (5 mg/kg), normal rats. The protocol: In performing the assay, three normal rats were injected intravenously with 5 mg/kg SP16 and the plasma concentration of SP16 established at 8 time points following the injection. […] The assay was executed by Apredica, Boston, Mass.

The next series concerns the target T2, TLR-2 (Mus musculus, UniProt Q9QUN7).
T2 construct: host or cells: HEK-Blue mTLR2 (engineered HEK reporter line secreting alkaline phosphatase)
Briefly: TLR-2 indicator cell line assay (HEK-Blue mTLR2, Invivogen), secreted alkaline phosphatase. It is filed as cell-based. To be noted: 20 μg/ml peptide for 24 hours (FIGS. 12, 13). On the procedure: Graph summarizing representative data from assays with an engineered TLR-2 indicator cell line (HEK-Blue™ mTLR2, Invivogen). Cells were incubated with the indicated concentrations of peptide for 24 hours. Upon TLR2 activation, the cells secrete alkaline phosphatase which can be assayed. The assay was done in triplicate and averages with standard deviations are plotted.
Graph summarizing data from an experiment where an engineered TLR-2 indicator cell line (HEK-Blue™ mTLR2, Invivogen) was used to test the impact of substituting amino acid residues of the SP16 peptide with alanine (“alanine scan”). Cells were incubated with 20 μg/ml of the indicated peptides for 24 hours. Upon TLR2 activation, the cells secrete alkaline phosphatase which can be assayed. The assay was done in triplicate and averages are plotted. Peptide sequences are shown in the following figure. *p<0.05, compared with scrambled control (SP34).
We also performed a peptide optimization assay using an alanine scan with the TLR-2 assay. Data was obtained using an experiment with an engineered TLR-2 indicator cell line (HEK-BLUE™ mTLR2, Invivogen). Cells were incubated with the 20 μg/ml of the indicated peptides for 24 hours. Upon TLR2 activation, the cells secrete alkaline phosphatase which can be assayed. The assay was done in triplicate and averages are plotted. […]

The subject of a further series is LPS challenged mice. Kind of series: Mouse LPS challenge model, serum TNF-alpha readout. It is filed as in vivo. To be noted: LPS challenged mice treated with alanine scanned SP16 peptides; compared to Dexamethasone (FIG. 10). On the procedure: In FIG. 10A the mice were treated with alanine scanned SP16 peptide. […] Based on this alanine screen, and without wishing to be bound by a theory, it appears that the C- and N-terminal amino acids contribute to the anti-inflammatory effect of the SP16 peptide. […] Groups of 3 animals were injected with 0.2 mg/kg peptide and subjected to LPS challenge. Serum TNF-alpha levels were determined by ELISA. Several peptides provided the same level of protection as 1 mg/kg Dexamethasone.
The ability of peptide drugs was tested to for their potential for the reduction of inflammatory cytokines following treatment with purified bacterial lipopolysaccharide (LPS)—a major component of bacterial cell wall of Gram negative bacteria. A model of inflammation was used wherein mice were injected with LPS, which induced a transient immune response and a surge of serum inflammatory cytokines. The immune response peaks after 90 minutes and subsides after 24 hours. The levels of key serum inflammatory markers were compared between mice treated and untreated with LPS 90 minutes after injection.
We designed 18 different peptides based on the hAAT sequence (Accession #AAB59371), and had these synthesized using conventional FMOC chemistry. To assess in vivo anti-inflammatory and therapeutic potential, the peptides were tested in a mouse lipopolysaccharide (LPS) challenge model with serum TNFα levels as readout. Using dexamethasone as reference, groups of 3 animals were IP injected with 0.2 mg/kg peptide 2 hours prior to an LPS challenge, and serum TNFα levels determined 30 min after the LPS challenge, by ELISA. The best performing peptide reduced serum TNFα levels equivalent to those achieved with 1 mg/kg dexamethasone. Next, shortened versions of this peptide were synthesized, tested in the mouse LPS challenge model, and a 17 amino acid peptide, SP16, emerged as a lead development candidate for further characterization. Next, SP16 was tested in a lethal endotoxemia model, which models endotoxemia following acute radiation exposure, where Gram negative bacteria leaking from the gastro-intestinal system can cause lethal endotoxemia.
Mice were injected with 0.5, 0.1, 0.02 and 0.004 mg of each peptide. Mice were also treated with dexamethasone as a positive control and vehicle as a negative control. Two hours later each mouse was injected with LPS. Samples were taken 90 minutes after LPS injection.
To evaluate the effect of different amino acids in the SP16 peptide for the immunomodulating effect, we created an alanine screen. […] The peptides wherein the substitution occurred within amino acids 4-14 of SP16, appeared to maintain and rather improve their capacity to reduce TNF-alpha levels compared to the control Dexamethasone. […]

T1 sequence (Q12809 whole entry): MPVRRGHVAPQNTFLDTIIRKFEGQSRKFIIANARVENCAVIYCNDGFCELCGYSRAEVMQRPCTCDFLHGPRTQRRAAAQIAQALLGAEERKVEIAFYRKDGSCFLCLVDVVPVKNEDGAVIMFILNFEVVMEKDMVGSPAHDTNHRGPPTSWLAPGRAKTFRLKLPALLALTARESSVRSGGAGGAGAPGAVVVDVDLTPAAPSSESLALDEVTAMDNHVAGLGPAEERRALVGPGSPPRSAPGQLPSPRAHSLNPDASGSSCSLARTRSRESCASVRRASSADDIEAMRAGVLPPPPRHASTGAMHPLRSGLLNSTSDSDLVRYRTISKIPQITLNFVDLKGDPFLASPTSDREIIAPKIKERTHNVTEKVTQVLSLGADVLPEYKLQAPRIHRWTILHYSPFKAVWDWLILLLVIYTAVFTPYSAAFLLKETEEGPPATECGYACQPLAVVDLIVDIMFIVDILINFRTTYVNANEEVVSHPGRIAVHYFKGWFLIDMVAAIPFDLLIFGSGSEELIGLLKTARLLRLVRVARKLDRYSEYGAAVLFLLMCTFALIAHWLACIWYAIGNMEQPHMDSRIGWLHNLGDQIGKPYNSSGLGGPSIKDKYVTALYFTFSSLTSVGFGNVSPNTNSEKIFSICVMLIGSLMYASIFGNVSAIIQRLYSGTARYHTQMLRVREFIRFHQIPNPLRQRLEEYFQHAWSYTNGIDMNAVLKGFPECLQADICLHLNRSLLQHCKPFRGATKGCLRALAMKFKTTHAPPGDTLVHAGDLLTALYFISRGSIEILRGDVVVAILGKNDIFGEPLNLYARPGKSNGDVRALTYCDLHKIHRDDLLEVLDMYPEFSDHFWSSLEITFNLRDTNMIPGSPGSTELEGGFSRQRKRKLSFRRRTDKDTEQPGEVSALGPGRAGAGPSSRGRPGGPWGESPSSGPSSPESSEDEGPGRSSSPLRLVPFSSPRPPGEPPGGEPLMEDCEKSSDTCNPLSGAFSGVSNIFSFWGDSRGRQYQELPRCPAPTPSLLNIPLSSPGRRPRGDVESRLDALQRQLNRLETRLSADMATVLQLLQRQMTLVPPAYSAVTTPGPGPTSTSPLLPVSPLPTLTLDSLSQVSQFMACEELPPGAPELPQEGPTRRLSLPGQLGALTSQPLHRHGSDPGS
T2 sequence (Q9QUN7 25-784): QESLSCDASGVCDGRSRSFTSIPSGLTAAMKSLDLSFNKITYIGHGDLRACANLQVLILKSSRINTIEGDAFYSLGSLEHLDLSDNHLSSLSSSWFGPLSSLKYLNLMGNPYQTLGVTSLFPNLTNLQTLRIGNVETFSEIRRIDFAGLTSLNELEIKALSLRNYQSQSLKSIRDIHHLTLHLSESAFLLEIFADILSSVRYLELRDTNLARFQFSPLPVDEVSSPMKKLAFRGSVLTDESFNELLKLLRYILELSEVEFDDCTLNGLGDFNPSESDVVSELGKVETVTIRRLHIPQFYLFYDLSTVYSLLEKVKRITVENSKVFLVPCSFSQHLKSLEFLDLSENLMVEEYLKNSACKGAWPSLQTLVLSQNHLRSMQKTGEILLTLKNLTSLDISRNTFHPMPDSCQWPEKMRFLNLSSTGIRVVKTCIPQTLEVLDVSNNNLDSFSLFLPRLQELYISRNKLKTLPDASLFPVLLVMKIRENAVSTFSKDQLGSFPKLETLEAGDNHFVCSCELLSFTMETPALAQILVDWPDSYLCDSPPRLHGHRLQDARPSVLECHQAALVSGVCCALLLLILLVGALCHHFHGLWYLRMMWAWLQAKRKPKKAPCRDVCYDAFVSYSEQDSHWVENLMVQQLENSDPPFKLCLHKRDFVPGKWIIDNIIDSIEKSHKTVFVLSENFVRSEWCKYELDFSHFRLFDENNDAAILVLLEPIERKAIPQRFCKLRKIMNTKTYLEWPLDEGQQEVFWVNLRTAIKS

As to `CC[C@H](C)[C@H](NC(=O)[C@H](CCSC)NC(=O)[C@H](CC(C)C)NC(=O)[C@H](Cc1ccccc1)NC(=O)[C@@H](NC(=O)[C@H](Cc1ccccc1)NC(=O)[C@@H]1CCCN1C(=O)[C@H](CCCCN)NC(=O)[C@H](CC(N)=O)NC(=O)[C@H](Cc1ccccc1)NC(=O)[C@H](CCCCN)NC(=O)[C@@H](N)C(C)C)C(C)C)C(=O)N[C@@H](CCC(=O)O)C(=O)N[C@@H](CCC(N)=O)C(=O)N[C@@H](CC(N)=O)C(=O)N[C@H](C(=O)N[C@@H](CCCCN)C(=O)O)[C@@H](C)O` [SP16], the “effect on 111 human receptors” value in the series with 111 human receptors is reported as “no effect”. For the same molecule, the “hERG inhibition (comment)” value at hERG is on record as “does not inhibit hERG; also recorded: No concentration-dependent inhibition”. In series [1], the Last Time point was found to be 8 h.

As to “A A A N K P F V F L M I E Q N T K (AAANKPFVFLMIEQNTK; listed as Homo sapiens) [SP37, SP16 with residues 1-3 substituted with alanines]”, the “impact on TLR-2 signaling (alanine scan)” value with TLR-2 was “no impact on TLR2”.

Turning to “V K F A A A F V F L M I E Q N T K (VKFAAAFVFLMIEQNTK; listed as Homo sapiens) [SP40]”, the TNF-alpha levels entry with LPS challenged mice is listed as “reduce TNF-alpha levels more than Dexamethasone”.

Take “V K F N K P A A A L M I E Q N T K (VKFNKPAAALMIEQNTK; listed as Homo sapiens) [SP43]”: in the series on LPS challenged mice, the TNF-alpha levels result was “reduce TNF-alpha levels more than Dexamethasone”.

As to “V K F N K P F V F A A A E Q N T K (VKFNKPFVFAAAEQNTK; listed as Homo sapiens) [SP46]”, in the series with LPS challenged mice, the TNF-alpha levels entry was “reduce TNF-alpha levels more than Dexamethasone”.

For the molecule “V K F N K P F V F L M I A A A T K (VKFNKPFVFLMIAAATK; listed as Homo sapiens) [SP49]”, the TNF-alpha levels result in the series on LPS challenged mice is “reduce TNF-alpha levels more than Dexamethasone”.
